Experimental data: PubChem BioAssay (NCI)
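Each compound was tested at five concentrations against cells in 96-well plates for 48 hours. TGI denotes the concentration required for complete inhibition of growth.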

What was measured:
Test in all cases: DTP human tumour cell line panel, 48 h
[1] = tested on: BT-549 breast
[2] = tested on: ACHN renal
[3] = tested on: COLO 205 colon
[4] = tested on: MOLT-4 leukemia
[5] = tested on: NCI-H226 lung
[6] = tested on: SW-620 colon
[7] = tested on: 786-0 renal
[8] = tested on: NCI/ADR-RES ovarian
[9] = tested on: SR leukemia
[10] = tested on: HCT-15 colon
[11] = tested on: U251 CNS
[12] = tested on: NCI-H522 lung
[13] = tested on: SK-MEL-2 melanoma
[14] = tested on: UACC-257 melanoma
[15] = tested on: KM12 colon
[16] = tested on: T-47D breast
[17] = tested on: IGROV1 ovarian
[18] = tested on: NCI-H460 lung
[19] = tested on: A498 renal
[20] = tested on: SK-MEL-28 melanoma
[21] = tested on: SF-539 CNS
[22] = tested on: A549 NSCLC
[23] = tested on: MCF7 breast
[24] = tested on: DU-145 prostate
[25] = tested on: UO-31 renal
[26] = tested on: SF-268 CNS
[27] = tested on: OVCAR-5 ovarian
[28] = tested on: M14 melanoma
[29] = tested on: MDA-MB-435
[30] = tested on: MDA-N
[31] = tested on: RPMI-8226 leukemia
[32] = tested on: RXF 393 renal
[33] = tested on: HT29 colon
[34] = tested on: HL-60(TB) leukemia
[35] = tested on: UACC-62 melanoma
[36] = tested on: HS 578T breast
[37] = tested on: SNB-19 CNS
[38] = tested on: SF-295 CNS
[39] = tested on: OVCAR-4 ovarian
[40] = tested on: LOX IMVI melanoma
[41] = tested on: CAKI-1 renal
[42] = tested on: SK-MEL-5 melanoma
[43] = tested on: OVCAR-8 ovarian
[44] = tested on: NCI-H23 lung
[45] = tested on: MDA-MB-231 breast
[46] = tested on: SK-OV-3 ovarian
[47] = tested on: SNB-75 CNS
[48] = tested on: TK-10 renal
[49] = tested on: HOP-62 NSCLC
[50] = tested on: PC-3 prostate
[51] = tested on: HCC-2998 colon
[52] = tested on: SN12C renal
[53] = tested on: OVCAR-3 ovarian
[54] = tested on: CCRF-CEM leukemia
[55] = tested on: EKVX NSCLC
[56] = tested on: HOP-92 NSCLC
[57] = tested on: HCT-116 colon
[58] = tested on: K-562 leukemia

Cc1ccc(S(=O)(=O)/N=C2/N(C)CCCS2(=O)=O)cc1
TGI [1]: > 100 µM
TGI [2]: > 100 µM
TGI [3]: > 100 µM
TGI [4]: > 100 µM
TGI [5]: > 100 µM
TGI [6]: > 100 µM
TGI [7]: > 100 µM
TGI [8]: > 100 µM
TGI [9]: > 100 µM
TGI [10]: > 100 µM
TGI [11]: > 100 µM
TGI [12]: > 100 µM
TGI [13]: > 100 µM
TGI [14]: > 100 µM
TGI [15]: > 100 µM
TGI [16]: > 100 µM
TGI [17]: > 100 µM
TGI [18]: > 100 µM
TGI [19]: > 100 µM
TGI [20]: > 100 µM
TGI [21]: > 100 µM
TGI [22]: > 100 µM
TGI [23]: > 100 µM
TGI [24]: > 100 µM
TGI [25]: > 100 µM
TGI [26]: > 100 µM
TGI [27]: > 100 µM
TGI [28]: > 100 µM
TGI [29]: > 100 µM
TGI [30]: > 100 µM
TGI [31]: > 100 µM
TGI [32]: > 100 µM
TGI [33]: > 100 µM
TGI [34]: > 100 µM
TGI [35]: > 100 µM
TGI [36]: > 100 µM
TGI [37]: > 100 µM
TGI [38]: > 100 µM
TGI [39]: > 100 µM
TGI [40]: > 100 µM
TGI [41]: > 100 µM
TGI [42]: > 100 µM
TGI [43]: > 100 µM
TGI [44]: > 100 µM
TGI [45]: 31.9 µM
TGI [46]: > 100 µM
TGI [47]: > 100 µM
TGI [48]: > 100 µM
TGI [49]: > 100 µM
TGI [50]: > 100 µM
TGI [51]: > 100 µM
TGI [52]: > 100 µM
TGI [53]: > 100 µM
TGI [54]: > 100 µM
TGI [55]: > 100 µM
TGI [56]: > 100 µM
TGI [57]: > 100 µM
TGI [58]: > 100 µM

Nc1nc2c(c(-c3ccccc3Cl)n1)COC/C2=C\c1ccccc1Cl
TGI [1]: 33.4 µM
TGI [2]: 32.3 µM
TGI [3]: 30.1 µM
TGI [4]: 34.6 µM
TGI [5]: 39.2 µM
TGI [6]: 31.8 µM
TGI [7]: 33.1 µM
TGI [8]: 33 µM
TGI [9]: 22.9 µM
TGI [10]: 39.9 µM
TGI [11]: 31.6 µM
TGI [12]: 31 µM
TGI [13]: 31 µM
TGI [14]: 34.7 µM
TGI [15]: 41.8 µM
TGI [16]: 44.8 µM
TGI [17]: 34 µM
TGI [18]: 39 µM
TGI [19]: 30.6 µM
TGI [21]: 34.4 µM
TGI [23]: 27.7 µM
TGI [24]: 32.6 µM
TGI [25]: 32 µM
TGI [26]: 34.3 µM
TGI [27]: 31.7 µM
TGI [28]: 29.6 µM
TGI [29]: 24.7 µM
TGI [30]: 24.1 µM
TGI [31]: 35.2 µM
TGI [32]: 29.9 µM
TGI [34]: 25.5 µM
TGI [35]: 30.6 µM
TGI [36]: 51 µM
TGI [37]: 29.8 µM
TGI [38]: 27.7 µM
TGI [39]: 39 µM
TGI [40]: 36.9 µM
TGI [41]: 31.9 µM
TGI [42]: 31.7 µM
TGI [43]: 30.8 µM
TGI [44]: 34.8 µM
TGI [45]: 34.8 µM
TGI [46]: 30 µM
TGI [47]: 35.3 µM
TGI [48]: 31.9 µM
TGI [49]: 32.2 µM
TGI [50]: 27.4 µM
TGI [51]: 34.6 µM
TGI [52]: 31.3 µM
TGI [53]: 31.2 µM
TGI [54]: 32.8 µM
TGI [55]: 35.2 µM
TGI [56]: 29 µM
TGI [57]: 30.7 µM
TGI [58]: 32 µM
